Like-named read-outs stand apart in the source and are kept apart here.
Test: Pharmacokinetic evaluation in C57 mice (i.g./i.v.)
Assay type: in vivo
Details: for Vd / AUC(0-t) / half-life / Cmax / bioavailability / CL/F: both sexes, mouse, plasma; for Vd: read-out: Apparent distribution volume Vss; for AUC(0-t): read-out: Area under curve AUC0-t; for half-life: read-out: Half-life T½ (converted); for Cmax: read-out: Plasma concentration Cmax; for bioavailability: oral, i.g. 2.0 mg/kg vs i.v. 1.0 mg/kg, read-out: Bioavailability F; for CL/F: read-out: Clearance rate CL/F; for Clearance rate CL/F: i.v.
Procedure: C57 mice were used as test animals. After intragastric (i.g.)/intravenous (i.v.) administration of the compounds of the present disclosure to C57 mice, the plasma concentrations of the compounds at different time points were determined by the LC/MS/MS method. The pharmacokinetic behaviors of the compounds of the present disclosure in C57 mice were studied, and their pharmacokinetic profiles were evaluated.
Compound 16 and compound 32.
Thirty-six C57 mice, with an equal number of males and females, provided by Vital River Laboratory Animal Technology Co., Ltd., with the production licenses SCXK (Zhejiang) 2019-0001 and SCXK (Beijing) 2019-0006. The mice were evenly divided into 4 groups of 9, with 3 mice per time point per group, and dosed by intragastric and intravenous administration.
Certain amounts of the test compounds were weighed out, and 5% DMSO+5% tween 80+90% normal saline was added to prepare 0.1 mg/mL colorless clear solutions (for the intragastric administration groups) and 0.1 mg/mL colorless clear solutions (for the intravenous administration groups).
The intragastric administration groups: The administration dose was 2.0 mg/kg, and the administration volume was 20 mL/kg.
The intravenous administration groups: The administration dose was 1.0 mg/kg, and the administration volume was 10 mL/kg.
The intragastric administration groups: 0.1-mL blood samples were collected from the orbit before administration and 0.25, 0.5, 1.0, 2.0, 4.0, 6.0, 8.0, 11.0, and 24.0 h after administration, placed into EDTA-K2 anticoagulation test tubes, and centrifuged at 10,000 rpm for 1 min (4° C.), and the plasma was separated within 1 h and stored at −80° C. before analysis. The procedures from the blood collection to the centrifugation were performed under ice-bath conditions.
The intravenous administration groups: Blood samples were collected before administration and 5 min and 0.25, 0.5, 1.0, 2.0, 4.0, 8.0, 11.0, and 24 h after administration and were treated in the same way as those collected from the intragastric administration groups.
Determination of the plasma concentrations of the test compounds in C57 mice after the compounds were administered at different concentrations: Compound 16: A 20-μL sample of the C57 mouse plasma collected at each time point after administration was taken, and 200 μL of acetonitrile containing 100 ng/mL camptothecin (internal standard) was added to each sample to precipitate protein. The mixture was vortexed for 5 min and centrifuged at 3700 rpm for 10 min. 50 μL of the supernatant was taken, and 100 μL of water was added. The mixture was vortexed for 5 min, and 1 μL of the mixture was taken for LC/MS/MS analysis. Compound 32: A 20-μL sample of the C57 mouse plasma collected at each time point after administration was taken, and 200 μL of acetonitrile containing verapamil (internal standard, 20 ng/mL) was added to each sample to precipitate protein. The mixture was vortexed for 5 min and centrifuged at 3700 rpm for 10 min. 90 μL of the supernatant was taken, and 90 μL of water was added. The mixture was vortexed for 5 min, and 0.1 μL of the mixture was taken for LC/MS/MS analysis.

CO/N=C(\N)c1cc(NC(=O)[C@@H]2O[C@@](C)(C(F)(F)F)[C@@H](C)[C@H]2c2ccc(F)c(F)c2OC)ccn1 [Example 16]
Vd (iv, 1.0 mg/kg): 9.97 L/kg | AUC(0-t) (iv, 1.0 mg/kg): 718 ng·h/mL | half-life (iv, 1.0 mg/kg): 8.1 h | Cmax (iv, 1.0 mg/kg): 377 ng/mL | bioavailability: 87.2% | AUC(0-t) (po, i.g., 2.0 mg/kg): 1250 ng·h/mL | CL/F (po, i.g., 2.0 mg/kg): 24.4 mL/min/kg | half-life (po, i.g., 2.0 mg/kg): 7.5 h | Cmax (po, i.g., 2.0 mg/kg): 266 ng/mL | Clearance rate CL/F (1.0 mg/kg): 21.1 mL/min/kg

COc1c([C@H]2[C@H](C(=O)Nc3ccnc(/C(N)=N/O)c3)O[C@@](C)(C(F)(F)F)[C@H]2C)ccc(F)c1F [Example 32]
Vd (iv, 1.0 mg/kg): 3.93 L/kg | AUC(0-t) (iv, 1.0 mg/kg): 947 ng·h/mL | half-life (iv, 1.0 mg/kg): 3.3 h | Cmax (iv, 1.0 mg/kg): 616 ng/mL | bioavailability: 82.6% | AUC(0-t) (po, i.g., 2.0 mg/kg): 1560 ng·h/mL | CL/F (po, i.g., 2.0 mg/kg): 21.2 mL/min/kg | half-life (po, i.g., 2.0 mg/kg): 3.2 h | Cmax (po, i.g., 2.0 mg/kg): 260 ng/mL | Clearance rate CL/F (1.0 mg/kg): 16.1 mL/min/kg

— patent US20260055088A1, “HETEROCYCLIC COMPOUND, METHOD FOR PREPARING SAME, AND PHARMACEUTICAL USE THEREOF” (Jiangsu Hengrui Pharmaceuticals Co., Ltd., priority 2022, published 2026)
